Earlier results on five compounds are cited in patent US20060089343A1, “Superoxide dismutase mimics for the treatment of ocular disorders and diseases” (ALCON, INC., priority 2002, published 2006).

The conditions of data set [1]: albino rats.
For data set [2] the following is noted: diabetogenic T-cell clone.
Another data set concerns IL-6 and MIP-2. The following applies: administration after induction of cerebral ischemia.
The conditions of data set [3]: given either before or after induction of cerebral ischemia.
For data set [4] the following is noted: diabetic rats.

Regarding `CC1(C)CC(O)CC(C)(C)N1[O]` [4-hydroxy-2,2,6,6-tetramethylpiperidine-1-oxyl], in data set [1], the light-induced retinal damage result is listed as “inhibited light-induced retinal damage”.
For `CCN1C=CC=C/C1=C1/C2=NC(=C(c3cccc[n+]3CC)C3=NC(=C(c4cccc[n+]4CC)c4ccc([n-]4)C(c4cccc[n+]4CC)=C4C=CC1=N4)C=C3)C=C2.[Cl-].[Cl-].[Cl-].[Cl-].[Cl-].[Mn+3]` [AEOL10113], the onset of diabetes entry in data set [2] is on record as “delay the onset of diabetes”.
As for `CCn1cc[n+](CC)c1C1=C2C=CC3=[N+]2[Mn]24[n]5c1ccc5C(c1n(CC)cc[n+]1CC)=C1C=CC(=[N+]12)C(c1n(CC)cc[n+]1CC)=c1ccc([n]14)=C3c1n(CC)cc[n+]1CC` [Compound 1], the “expression of pro-inflammatory proteins, such as IL-6 and MIP-2” value in the data set with IL-6 and MIP-2 is recorded as “attenuation of the increased expression”.
As to `CC[n+]1ccccc1C1=C2C=CC3=[N+]2[Mn]24[n]5c1ccc5C(c1cccc[n+]1CC)=C1C=CC(=[N+]12)C(c1cccc[n+]1CC)=c1ccc([n]14)=C3c1cccc[n+]1CC` [Compound 2], the infarct volume entry in data set [3] is “reduces infarct volume”.
On to `[Cl-].[Cl-].[Mn+2].c1cc2nc(c1)CN[C@@H]1CCCC[C@H]1NCCN[C@@H]1CCCC[C@H]1NC2` [Compound M40403], for which, in data set [4], the “vascular and neural dysfunction” value is “prevented vascular and neural dysfunction”.
